Results on six molecules are retold here after PMC3236741 (PLoS ONE, 2011).

For data set [1], the target named is protein A purified polyclonal antibody directed to the COOH-terminus of human Ang-(1-12). Briefly: Binding affinity and cross-reactivity of protein A purified polyclonal Ang-(1-12) antibody (IgG). The settings on record: protein A purified polyclonal antibody (IgG) to human Ang-(1-12); cross-reactivity. Here is the method: Left atrial tissues from human cardiac patient were fixed in 4% paraformaldehyde for 24 h and then transferred into 70% ethanol. After dehydration, the tissues were embedded in paraffin and each section was cut in 5-µm thick sections. Immunohistochemistry was performed using well characterized protein A purified polyclonal antibody directed to the COOH-terminus of full length of human Ang-(1-12) sequence [Asp^1-Arg^2-Val^3-Tyr^4-Ile^5-His^6-Pro^7-Phe^8-His^9-Leu^10-Val^11-Ile^12] (AnaSpec, San Jose, CA). The binding affinity and cross-reactivity of protein A purified antibody (IgG) was checked for human Ang-(1-12) and small Ang peptides [Ang I, Ang II and Ang-(1-7)]. […] The antibody was independently used to detect immunoreactive Ang-(1-12) in human atrial tissue using the avidin-biotin horseradish peroxidase techniques as previously reported by our laboratory, [11]. Briefly, slides were deparaffinized in xylene (15 min), subsequently dipped in ethanol (100%, 95% and 75%, respectively) and washed in double distilled water. The clear slides were incubated in 3% hydrogen peroxide to block the endogenous peroxidase. […]

The nature of data set [2]: ^125I-Ang-(1-12) metabolism by plasma membranes from human atrial appendage, HPLC with inline γ-detector. To be noted: human atrial plasma membrane 50 µg, 1 nmol/L substrate, 15 min pre-incubation, 60 min at 37°C, HPLC γ-detection, mean ± SEM, n = 9.
Method: Membranes were prepared at 4°C in a manner similar to the approaches previously described by our laboratory [52] and by Urata et al. [26] Frozen atrial tissue (50–100 mg) was homogenized at 4°C in 1 mL PBS (pH 7.4) in a Qiagen TissueLyzer (Valencia, CA). The homogenate was centrifuged at low spin (200 g) for 5 min at 4°C to remove the connective tissues and cell debris. The supernatant was transferred into a new tube and centrifuged at 28,000 g for 20 min at 4°C to collect the plasma membrane. The pellet was resuspended in PBS and centrifuged as described above. Finally, the pellet was resuspended in PBS and stored at −80°C till its use for metabolism studies. The concentration of each cardiac membrane preparation is expressed in terms of protein concentration measured by Bradford Reagent using bovine serum albumin (BSA) as the standard; the results were normalized in terms of per mg protein.
For ^125I-Ang-(1-12) metabolism studies, plasma membranes (50 µg per reaction mixture) were preincubated for 15 min under various combinations of RAS and peptidases inhibitors (50 µM each). After preincubation of plasma membranes with the inhibitors, human ^125I-Ang-(1-12) (1 nmol/L; specific activity 3,900 cpm/fmol) was added to the reaction medium and incubated for an additional 60 min at 37°C. At the end of the incubation time, the reaction was stopped by adding equal volume of 1% phosphoric acid, mixed well, and centrifuged at 28,000 g for 20 min to remove the plasma membrane. […] On the day of HPLC analysis, the samples were filtered before separation by reverse-phase high-performance liquid chromatography. We used a linear gradient from 10% to 50% mobile phase B at a flow rate of 0.35 mL/min at ambient temperature. The solvent system consisted of 0.1% phosphoric acid (mobile phase A) and 80% acetonitriles/0.1% phosphoric acid (mobile phase B). The eluted ^125I products were monitored by an in-line flow-through gamma detector (BioScan Inc., Washington, DC). Products were identified by comparison of retention time of synthetic [^125I] standard peptides and the data were analyzed with Shimadzu LCSolution (Kyoto, Japan) acquisition software.
Data set [3] has as its system Ang I induced carotid artery vasoconstriction. To be noted: administration of chymostatin in enalapril-treated SHR rats; ref Becari et al. [30]; cited from earlier work. The source says:
A critical role for chymase in accounting for the processing of Ang-(1-12) is reinforced through the corresponding consistency of the chymase activity measured in each of the human samples. Since the atrial tissue employed in these studies was obtained from subjects undergoing cardiac surgery for the treatment of heart rhythm disorders (Table 2), we cannot exclude the possibility that the relatively high chymase activity reflects increased expression of this enzyme in this condition. Although an increase in cardiac chymase activity has been reported in both clinical and experimental forms of h ...

Another data set has as its target T1, chymase (Homo sapiens, UniProt P23946).
T1 construct: hydrolysis of 1 mM N-suc-AAPF-pNA in the plasma membrane of six human atrial tissues; from tissue; host or cells: human left atrial appendage tissue, plasma membrane fraction
T1 sequence (P23946 22-247): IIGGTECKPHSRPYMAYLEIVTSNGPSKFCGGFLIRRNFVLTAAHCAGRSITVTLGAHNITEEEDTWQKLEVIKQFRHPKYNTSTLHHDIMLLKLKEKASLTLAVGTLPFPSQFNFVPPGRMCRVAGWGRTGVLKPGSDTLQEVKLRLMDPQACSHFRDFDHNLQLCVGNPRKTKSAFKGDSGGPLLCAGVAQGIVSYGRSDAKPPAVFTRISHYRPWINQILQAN
Briefly: Hydrolysis of colorimetric substrate N-suc-AAPF-pNA by human plasma membrane with or without chymostatin. It is filed as biochemical. To be noted: chymostatin 50 µM; 1 mM N-suc-AAPF-pNA; 50 mM Tris pH 8.0, 1.5 M NaCl, 1% DMSO; 37°C, 0–180 min; absorbance 410 nm; six human atrial tissues. How it is done:
Chymase activity was also monitored by evaluating the hydrolysis of 1 mM N-suc-AAPF-pNA in the plasma membrane of six human atrial tissues. Briefly, all assays were performed in a total reaction volume of 200 µL in the 96-well microtiter plates containing plasma membranes with or without the presence of chymostatin (chymase inhibitor; 50 µM) as described above in 50 mM Tris buffer (pH 8.0) containing 1.5 M NaCl and 1% dimethylsulphoxide. The increase in absorbance at 410 nm was measured at 37°C for different time points (0–180 min) for the released p-nitroaniline. In addition, Ang II formation from ^125I-Ang-(1-12) was also investigated in the absence and in the presence of TEI-F00806 (100 µM; an orally active chymase-specific inhibitor provided by Teijin Pharma, Tokyo, Japan). Briefly, plasma membranes isolated from human atrial tissue (50 µg per reaction mixture) and ^125I-Ang-(1-12) were incubated in the presence or absence of TEI-F00806 (as described above for chymostatin) for 37°C for 60 min. At the end of incubation, samples were analyzed by HPLC for Ang II formation from ^125I-Ang-(1-12).

A short description of data set [4]: plasma membrane of six human atrial tissues in 50 mM Tris buffer (pH 8.0) containing 1.5 M NaCl and 1% dimethylsulphoxide. The settings on record: 37°C, up to 180 min.
A further data set concerns human leukocyte elastase. The settings on record: cited from earlier work.
Data set [5] can be described thus: plasma membrane of six human atrial tissues in 50 mM Tris buffer (pH 8.0) containing 1.5 M NaCl and 1% dimethylsulphoxide, with chymostatin. To be noted: 37°C, up to 180 min.
The nature of data set [6]: plasma membrane (50 µg) isolated from human atrial appendage, All RAS inhibitors group. To be noted: 37°C, up to 60 min.
Data set [7] is described as follows: plasma membrane (50 µg) isolated from human atrial appendage, Minus Chymostatin group. To be noted: 37°C, up to 60 min.
A short description of data set [8]: plasma membrane (50 µg) isolated from human atrial appendage, Minus Lisinopril group. The settings on record: 37°C, up to 60 min.
Data set [9] in a line: plasma membrane (50 µg) isolated from human atrial appendage, No RAS inhibitors group. To be noted: 37°C, up to 60 min.

By EC50 is commonly meant the midpoint of the concentration-response curve. Read a high EC50 as weaker potency.

Entries after “also recorded” stand apart in the source; their conditions may differ. Marks after values point to notes of the source that are not given here. Peptide text beside a SMILES is read from it.

In data set [1], “angiotensin II (DRVYIHPF; Angiotensin-2; UniProt P01019 25-32, looked up) [Ang II, angiotensin peptide, main metabolic product of ^125I-Ang-(1-12)]” displayed an EC50 of 0.28 ± 0.02 nM.

Turning to `CC[C@H](C)[C@H](NC(=O)[C@@H](NC(=O)[C@H](CC(C)C)NC(=O)[C@H](Cc1c[nH]cn1)NC(=O)[C@H](Cc1ccccc1)NC(=O)[C@@H]1CCCN1C(=O)[C@H](Cc1c[nH]cn1)NC(=O)[C@@H](NC(=O)[C@H](Cc1ccc(O)cc1)NC(=O)[C@@H](NC(=O)[C@H](CCCNC(=N)N)NC(=O)[C@@H](N)CC(=O)O)C(C)C)[C@@H](C)CC)C(C)C)C(=O)O` [Ang-(1-12), angiotensin-(1-12)] (H-DRVYIHPFHLVI-OH), the “Percent of ^125I-Ang-(1-12) parent control remained unmetabolized” value in [2] (All RAS inhibitors (plus lisinopril, SCH39370, MLN-4760, chymostatin; 50 µM each)) is listed as 98±7%; in data set [2] (Minus chymostatin (all inhibitors except chymase inhibitor; 50 µM each)) it was 31±13 ^a %; in [2] (Minus lisinopril (all inhibitors except ACE inhibitor; 50 µM each)), 98±5%; in data set [2] (NO RAS inhibitors (only amastatin, bestatin, benzyl succinate, PCMB; 50 µM each)) it was 22±10 ^a %.

For angiotensin-(1-7) [Ang-(1-7)], the “binding affinity of the antibody (EC50)” value in [1] is “below detection”.

For the molecule `CC(C)C[C@H](NC(=O)[C@@H](NC(=O)N[C@@H](Cc1ccccc1)C(=O)O)[C@@H]1CCN=C(N)N1)C(=O)N[C@H](C=O)Cc1ccccc1` [chymostatin, Chymostatin], the “inhibition of Ang I induced carotid artery vasoconstriction” value in data set [3] is 80%. Besides, the “hydrolysis of N-suc-AAPF-pNA by human plasma membrane in the presence of inhibitor” value on chymase was “completely blocked”.

In the case of “N-Succinyl-Ala-Ala-Pro-Phe-p-nitroanilide”, the fragment found entry in [4] was “p-nitroaniline”. Further, the not cleaved result in the data set on human leukocyte elastase is on record as “not hydrolyzed by human leukocyte elastase”; in [5], “hydrolysis completely blocked in the presence of chymostatin”.

Take “H-Asp^1-Arg^2-Val^3-Tyr^4-Ile^5-His^6-Pro^7-Phe^8-His^9-Leu^10-Val^11-Ile^12-OH”: the fragment found entry in data set [6] is reported as “Ang I, minor; also recorded: Ang II, minor”; in [7], “Ang I, minor”; in [8] it was “Ang II, minor”; in data set [9] it was “Ang I, minor”. Besides, the cleaved bond entry in data set [7] is given as “Phe8-His9, major”; in data set [9], “Phe8-His9, major”.
